Test results: patent US11814367B2, “Inhibitors of glycogen synthase 1 (GYS1) and methods of use thereof” (Maze Therapeutics, Inc., priority 2021, dated 2023)

Molecular target: hGYS1 enzyme (recombinant hGYS1/GN1 protein) (Homo sapiens (Human), UniProt P13807)
Experiment: GYS1 coupled enzyme assay (PK/LDH)
Type: biochemical
Details: hGYS1/GN1 50 nM, UDP-Glucose 0.8 mM, G6P 1 mM; geometric mean of at least 2 runs
From the text: The GYS1 coupled enzyme assay is a kinetic biochemical assay that indirectly quantifies the rate of glycogen synthesis by coupling the conversion of GYS1 substrate UDP-glucose into UDP with downstream enzymatic reactions. UDP is released from UDP-glucose as glucose monomers are linked into the growing glycogen strand by GYS1. The coupled assay then proceeds with pyruvate kinase utilizing UDP and phospho(enol)pyruvate (PEP) to form pyruvate. Lactate dehydrogenase then converts pyruvate and NADH into lactate and NAD+. Oxidation of NADH to NAD+ can be measured continuously with a plate reader by quantifying the decrease in NADH absorbance at 340 nm over time.
Compounds that inhibit the hGYS1 enzyme and, subsequently, the downstream conversion of NADH to NAD+, were tested using assay ready plates (black, clear bottom 384 well plates) in a final DMSO reaction volume of 2.5% DMSO. The Assay Buffer contained 50 mM Tris pH 7.5, 2 mM MgCl2, and 100 mM KCl. Fresh stocks of BSA at a final concentration of 0.02% and TCEP at 1 mM were added before splitting buffer into hGYS1 buffer and substrate buffer. To the hGYS1 buffer, rabbit liver glycogen was added at a final concentration of 0.2% glycogen. Glucose-6-Phosphate was added at 1 mM, recombinant hGYS1/GN1 protein was added at 50 nM to the substrate buffer, phosphoenolpyruvate (PEP) was added at 2 mM, UDP-Glucose was added at 0.8 mM, NADH) was added at 0.6 mM, and Pyruvate Kinase/Lactate Dehydrogenase was added at 20 units/mL. The reaction was initiated by mixing hGYS1 buffer and substrate buffer at a 1:1 ratio. Both buffers were plated using a liquid dispensing device with hGYS1 buffer plated first followed by the substrate buffer. Plates were spun briefly to eliminate air bubbles and are immediately read in continuous mode at an absorbance of 340 nm, for 10 time points in one-minute increments, for a total of 10 minutes. The slope from these 10 time points was normalized to the positive and negative control wells. The duplicate % inhibition values are then averaged and fit to a Hill equation for dose response according to the Levenberg-Marquardt algorithm with the Hill equation maximum set to 100 and the minimum set to 0.
Unless otherwise specified, IC50 values are reported as the geometric mean of at least 2 assay runs on separate days. Each run represents the average of a technical replicate, where each compound was assayed twice in the same plate. […] A superscript “#” symbol in Table 2 indicates results from a single assay run.

hGYS1 enzyme (recombinant hGYS1/GN1 protein), sequence (P13807 whole entry): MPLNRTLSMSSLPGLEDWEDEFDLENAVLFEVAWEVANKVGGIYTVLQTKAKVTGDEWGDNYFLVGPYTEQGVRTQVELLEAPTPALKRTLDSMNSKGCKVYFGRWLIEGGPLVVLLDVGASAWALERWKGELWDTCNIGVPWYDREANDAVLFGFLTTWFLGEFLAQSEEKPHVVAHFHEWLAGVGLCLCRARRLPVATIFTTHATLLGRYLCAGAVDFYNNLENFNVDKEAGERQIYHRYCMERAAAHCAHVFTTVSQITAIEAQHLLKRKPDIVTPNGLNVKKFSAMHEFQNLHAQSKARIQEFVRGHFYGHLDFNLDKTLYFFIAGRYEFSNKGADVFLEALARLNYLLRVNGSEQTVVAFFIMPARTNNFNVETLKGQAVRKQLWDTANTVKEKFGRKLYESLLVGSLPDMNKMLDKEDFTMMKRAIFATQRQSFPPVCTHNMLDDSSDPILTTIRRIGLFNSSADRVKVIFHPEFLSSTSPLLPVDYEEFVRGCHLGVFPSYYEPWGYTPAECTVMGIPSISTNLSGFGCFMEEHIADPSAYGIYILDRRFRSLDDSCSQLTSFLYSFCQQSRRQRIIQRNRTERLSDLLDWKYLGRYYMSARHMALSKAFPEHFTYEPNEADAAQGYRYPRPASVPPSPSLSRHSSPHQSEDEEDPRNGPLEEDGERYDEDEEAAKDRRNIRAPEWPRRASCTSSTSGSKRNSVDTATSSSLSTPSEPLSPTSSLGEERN
hGYS1 enzyme (recombinant hGYS1/GN1 protein), sequence (P46976 whole entry partner): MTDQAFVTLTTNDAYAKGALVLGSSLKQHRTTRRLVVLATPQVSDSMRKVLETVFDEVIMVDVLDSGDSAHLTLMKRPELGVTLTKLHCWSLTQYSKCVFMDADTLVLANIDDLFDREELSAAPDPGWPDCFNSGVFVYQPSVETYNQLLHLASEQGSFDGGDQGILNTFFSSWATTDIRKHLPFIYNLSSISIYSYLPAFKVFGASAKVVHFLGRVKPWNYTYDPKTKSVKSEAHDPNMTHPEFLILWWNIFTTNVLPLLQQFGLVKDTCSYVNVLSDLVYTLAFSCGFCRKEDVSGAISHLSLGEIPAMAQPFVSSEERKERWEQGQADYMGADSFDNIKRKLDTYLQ

| IC50 [nM] | SMILES |
| --- | --- |
| 121 | CC(=O)N1CC(CC(=O)N2C[C@H](F)C[C@H]2C(=O)N[C@@H](c2ccccc2)c2ccc(C(C)C)cc2)Oc2ccccc21 (stereo partly drawn) [Compound 116, (2S,4R)-1-[2-(4-acetyl-3,5-dihydro-2H-1,4-benzoxazin-2-yl)acetyl]-4-fluoro-N-[(S)-phenyl[4-(propan-2-yl)phenyl]methyl]pyrrolidine-2-carboxamide] |
| 343 | CC(Cn1cncn1)C(=O)N1C[C@H](F)C[C@H]1C(=O)N[C@@H](c1ccccc1)c1ccc(C(C)C)cc1 (stereo partly drawn) [Compound 120, (2S,4R)-4-fluoro-1-[2-methyl-3-(1H-1,2,4-triazol-1-yl)propanoyl]-N-[(S)-phenyl[4-(propan-2-yl)phenyl]methyl]pyrrolidine-2-carboxamide] |
| 989 | CC(C)c1ccc([C@@H](NC(=O)[C@@H]2C[C@@H](F)CN2C(=O)c2ccc3c(c2)NC(=O)CO3)c2ccccc2)cc1 [Compound 122, (2S,4R)-4-fluoro-1-(3-oxo-3,4-dihydro-2H-1,4-benzoxazine-6-carbonyl)-N-[(S)-phenyl[4-(propan-2-yl)phenyl]methyl]pyrrolidine-2-carboxamide] |
| 1000 | CC(C)c1ccc([C@@H](NC(=O)[C@@H]2C[C@@H](F)CN2C(=O)c2cccc(-n3cncn3)c2)c2ccccc2)cc1 [Compound 123, (2S,4R)-4-fluoro-N-[(S)-phenyl[4-(propan-2-yl)phenyl]methyl]-1-[3-(1H-1,2,4-triazol-1-yl)benzoyl]pyrrolidine-2-carboxamide] |
| 78 | CC(Oc1cccnc1)C(=O)N1C[C@H](F)C[C@H]1C(=O)N[C@@H](c1ccccc1)c1ccc(C(C)C)cc1 (stereo partly drawn) [Compound 124, (2S,4R)-4-fluoro-N-[(S)-phenyl[4-(propan-2-yl)phenyl]methyl]-1-[2-(pyridin-3-yloxy)propanoyl]pyrrolidine-2-carboxamide] |
| 318 | Cc1cnn(C(C)C(=O)N2C[C@H](F)C[C@H]2C(=O)N[C@@H](c2ccccc2)c2ccc(C(C)C)cc2)c1 (stereo partly drawn) [Compound 127, (2S,4R)-4-fluoro-1-[2-(4-methyl-1H-pyrazol-1-yl)propanoyl]-N-[(S)-phenyl[4-(propan-2-yl)phenyl]methyl]pyrrolidine-2-carboxamide] |
| 563 | CC(C)c1ccc([C@@H](NC(=O)[C@@H]2C[C@@H](F)CN2C(=O)c2cc3n(n2)CCCNC3=O)c2ccccc2)cc1 [Compound 131, (2S,4R)-4-fluoro-1-{4-oxo-4H,5H,6H,7H,8H-pyrazolo[1,5-a][1,4]diazepine-2-carbonyl}-N-[(S)-phenyl[4-(propan-2-yl)phenyl]methyl]pyrrolidine-2-carboxamide] |
| 99 | CC(Cc1ccccn1)C(=O)N1C[C@H](F)C[C@H]1C(=O)N[C@@H](c1ccccc1)c1ccc(C(C)C)cc1 (stereo partly drawn) [Compound 132, (2S,4R)-4-fluoro-1-[2-methyl-3-(pyridin-2-yl)propanoyl]-N-[(S)-phenyl[4-(propan-2-yl)phenyl]methyl]pyrrolidine-2-carboxamide] |
| 357 | CC(C)c1ccc([C@@H](NC(=O)[C@@H]2C[C@@H](F)CN2C(=O)C2CCC3CCC(=O)N3C2)c2ccccc2)cc1 (stereo partly drawn) [Compound 139, (2S,4R)-4-fluoro-1-(3-oxo-octahydroindolizine-6-carbonyl)-N-[(S)-phenyl[4-(propan-2-yl)phenyl]methyl]pyrrolidine-2-carboxamide] |
| 323 | CC(=O)N1CC(F)(C(=O)N2C[C@H](F)C[C@H]2C(=O)N[C@@H](c2ccccc2)c2ccc(C(C)C)cc2)C1 [Compound 143, (2S,4R)-1-(1-acetyl-3-fluoroazetidine-3-carbonyl)-4-fluoro-N-[(S)-phenyl[4-(propan-2-yl)phenyl]methyl]pyrrolidine-2-carboxamide] |
| 344 | CC(=O)N1C[C@H]2C[C@@]2(C(=O)N2C[C@H](F)C[C@H]2C(=O)N[C@@H](c2ccccc2)c2ccc(C(C)C)cc2)C1 [Compound 148, (2S,4R)-1-[(1S,5S)-3-acetyl-3-azabicyclo[3.1.0]hexane-1-carbonyl]-4-fluoro-N-[(S)-phenyl[4-(propan-2-yl)phenyl]methyl]pyrrolidine-2-carboxamide] |
| 554 | CC(=O)N1C[C@]2(C(=O)N3C[C@H](F)C[C@H]3C(=O)N[C@@H](c3ccccc3)c3ccc(C(C)C)cc3)CC1CO2 [Compound 150, (2S,4R)-1-[(1S)-5-acetyl-2-oxa-5-azabicyclo[2.2.1]heptane-1-carbonyl]-4-fluoro-N-[(S)-phenyl[4-(propan-2-yl)phenyl]methyl]pyrrolidine-2-carboxamide] |
| 132 | CC(=O)N1CCC(C)(C(=O)N2C[C@H](F)C[C@H]2C(=O)N[C@@H](c2ccccc2)c2ccc(C(C)C)cc2)C1 (stereo partly drawn) [Compound 152, (2S,4R)-1-(1-acetyl-3-methylpyrrolidine-3-carbonyl)-4-fluoro-N-[(S)-phenyl[4-(propan-2-yl)phenyl]methyl]pyrrolidine-2-carboxamide] |
| 412 | CC(=O)N1CCC[C@H](C(=O)N2C[C@H](F)C[C@H]2C(=O)N[C@@H](c2ccccc2)c2ccc(C(C)C)cc2)C1 [Compound 153, (2S,4R)-1-[(3S)-1-acetylpiperidine-3-carbonyl]-4-fluoro-N-[(S)-phenyl[4-(propan-2-yl)phenyl]methyl]pyrrolidine-2-carboxamide] |
| 304 | CC(=O)N1CCC2(CC2C(=O)N2C[C@H](F)C[C@H]2C(=O)N[C@@H](c2ccccc2)c2ccc(C(C)C)cc2)C1 (stereo partly drawn) [Compound 156, (2S,4R)-1-{5-acetyl-5-azaspiro[2.4]heptane-1-carbonyl}-4-fluoro-N-[(S)-phenyl[4-(propan-2-yl)phenyl]methyl]pyrrolidine-2-carboxamide] |
| 740 | CC(=O)N1CCO[C@@H](C)[C@@H]1C(=O)N1C[C@H](F)C[C@H]1C(=O)N[C@@H](c1ccccc1)c1ccc(C(C)C)cc1 [Compound 159, (2S,4R)-1-[(2S,3R)-4-acetyl-2-methylmorpholine-3-carbonyl]-4-fluoro-N-[(S)-phenyl[4-(propan-2-yl)phenyl]methyl]pyrrolidine-2-carboxamide] |
| 374 | COC1(CC(=O)N2C[C@H](F)C[C@H]2C(=O)N[C@@H](c2ccccc2)c2ccc(C(C)C)cc2)CN(C(C)=O)C1 [Compound 161, (2S,4R)-1-[2-(1-acetyl-3-methoxyazetidin-3-yl)acetyl]-4-fluoro-N-[(S)-phenyl[4-(propan-2-yl)phenyl]methyl]pyrrolidine-2-carboxamide] |
| 467 | CC(=O)N1CC2(CC(C(=O)N3C[C@H](F)C[C@H]3C(=O)N[C@@H](c3ccccc3)c3ccc(C(C)C)cc3)CO2)C1 (stereo partly drawn) [Compound 164, (2S,4R)-1-{2-acetyl-5-oxa-2-azaspiro[3.4]octane-7-carbonyl}-4-fluoro-N-[(S)-phenyl[4-(propan-2-yl)phenyl]methyl]pyrrolidine-2-carboxamide] |
| 361 | CC(=O)N1C[C@@H]2[C@@H](C(=O)N3C[C@H](F)C[C@H]3C(=O)N[C@@H](c3ccccc3)c3ccc(C(C)C)cc3)CO[C@@H]2C1 [Compound 165, (2S,4R)-1-[(3R,3aS,6aS)-5-acetyl-hexahydro-2H-furo[2,3-c]pyrrole-3-carbonyl]-4-fluoro-N-[(S)-phenyl[4-(propan-2-yl)phenyl]methyl]pyrrolidine-2-carboxamide] |
| 439 | CC(=O)N1CCCC(C)(C(=O)N2C[C@H](F)C[C@H]2C(=O)N[C@@H](c2ccccc2)c2ccc(C(C)C)cc2)C1 (stereo partly drawn) [Compound 168, (2S,4R)-1-(1-acetyl-3-methylpiperidine-3-carbonyl)-4-fluoro-N-[(S)-phenyl[4-(propan-2-yl)phenyl]methyl]pyrrolidine-2-carboxamide] |
| 306 | CC(=O)N1CC[C@@H](C)[C@H](C(=O)N2C[C@H](F)C[C@H]2C(=O)N[C@@H](c2ccccc2)c2ccc(C(C)C)cc2)C1 [Compound 170, (2S,4R)-1-[(3S,4R)-1-acetyl-4-methylpiperidine-3-carbonyl]-4-fluoro-N-[(S)-phenyl[4-(propan-2-yl)phenyl]methyl]pyrrolidine-2-carboxamide] |
| 844 | CC(=O)N1C[C@H]2CC[C@@H](C1)[C@@H]2C(=O)N1C[C@H](F)C[C@H]1C(=O)N[C@@H](c1ccccc1)c1ccc(C(C)C)cc1 [Compound 173, (2S,4R)-1-[(1R,5S,8S)-3-acetyl-3-azabicyclo[3.2.1]octane-8-carbonyl]-4-fluoro-N-[(S)-phenyl[4-(propan-2-yl)phenyl]methyl]pyrrolidine-2-carboxamide] |

| SMILES | IC50 [nM] |
| --- | --- |
| CC(=O)N1C2CCC1[C@@H](C(=O)N1C[C@H](F)C[C@H]1C(=O)N[C@@H](c1ccccc1)c1ccc(C(C)C)cc1)C2 (stereo partly drawn) [Compound 157, (2S,4R)-1-[(2S)-7-acetyl-7-azabicyclo[2.2.1]heptane-2-carbonyl]-4-fluoro-N-[(S)-phenyl[4-(propan-2-yl)phenyl]methyl]pyrrolidine-2-carboxamide] | 392 |
